In patent publication US9322049B2, “Activation and activators of SirT6” (CORNELL UNIVERSITY, priority 2009, dated 2016):

Experiments:
[1] = molecular target: T1, SirT6 (Homo sapiens, UniProt Q8N6T7); assay: Determination of Kd of DNA for SirT6 activation by HPLC (Example 2); assay type: biochemical; conditions: 800 μM NAD, 480 μM H3, 10 μM SirT6, 2 hours 37° C.; fit Activation (fold)=1+m*x/(Kd+x)
T1 construct: The protein expression and purification were the same as the full length SIRT6 as described above; made in house; host or cells: E. coli BL21 Codon-plus RIPL
T1 sequence (Q8N6T7 whole entry): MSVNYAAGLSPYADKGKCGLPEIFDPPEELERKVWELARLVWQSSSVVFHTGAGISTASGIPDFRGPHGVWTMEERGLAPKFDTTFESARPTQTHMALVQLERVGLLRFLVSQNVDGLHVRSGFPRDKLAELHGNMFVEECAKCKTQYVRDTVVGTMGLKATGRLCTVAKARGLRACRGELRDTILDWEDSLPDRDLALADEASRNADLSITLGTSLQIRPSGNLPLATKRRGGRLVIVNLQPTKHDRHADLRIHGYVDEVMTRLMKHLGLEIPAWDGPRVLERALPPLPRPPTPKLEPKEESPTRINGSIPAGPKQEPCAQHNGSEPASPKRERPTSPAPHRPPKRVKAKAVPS
Description: FIG. 5A depicts a schematic of DNA structure. […] After 2 hours incubation at 37° C., either the deacetylated H3 was separated from H3 in the reaction containing the digested calf thymus DNA or AADPR was separated from other components in the reaction containing ssDNA, the plasmid, or dsDNA.
The plasmid pSTBlue was digested with BamHI and EcoRV and purified by […]™ III kit. […] The AADPR was separated by HPLC and the quantified data were fit into Michaelis-Menten equation to get Km of H3.
In the enzymatic reaction, the following DNA was used.
Calf thymus DNA (USB Corporation), which was digested with EcoRI and then purified using Spinprep Gel DNA Kit (Novagen);
ssDNA (5′ […] 3′ (SEQ ID NO: 9), Integrated DNA Technologies);
dsDNA (forward 5′ […] 3′ (SEQ ID NO: 10), reverse 5′ […] 3′ (SEQ ID NO: 11), Integrated DNA Technologies); and
pSTBlue plasmid, which was amplified using DH5α cells and purified by WIZARD™ PLUS (Midiprep) DNA purification system (Promega).
The precipitated proteins and other insolubles were removed by centrifugation at 15,000 rpm for 5 minutes. DNA in the supernatant was further removed by centrifugation at 15,000 rpm for 10 minutes using Microcon with 10 kDa cutoff (Millipore). In the experiment with the digested calf thymus DNA, the peptides were separated by a Waters Xterra RP-18 column using a gradient of 0-30% acetonitrile in 0.1% trifluoroacetic acid. […]

[2] = molecular target: T2, truncated SirT6 (deletion of N terminal 17 amino acids) (Homo sapiens, UniProt Q8N6T7); assay: Deacetylation rate of truncated SirT6 with suramin or single stranded DNA; assay type: biochemical; conditions: 50 μM suramin or 100 ng/μl single stranded DNA; 800 μM NAD, 480 μM H3, 10 μM enzyme
T2 construct: The truncated SIRT6 was cloned similarly with the full length SIRT6; poly-histidine (pET28a) (N); made in house; host or cells: E. coli BL21 Codon-plus RIPL
T2 sequence (Q8N6T7 with tags, fused parts or gaps): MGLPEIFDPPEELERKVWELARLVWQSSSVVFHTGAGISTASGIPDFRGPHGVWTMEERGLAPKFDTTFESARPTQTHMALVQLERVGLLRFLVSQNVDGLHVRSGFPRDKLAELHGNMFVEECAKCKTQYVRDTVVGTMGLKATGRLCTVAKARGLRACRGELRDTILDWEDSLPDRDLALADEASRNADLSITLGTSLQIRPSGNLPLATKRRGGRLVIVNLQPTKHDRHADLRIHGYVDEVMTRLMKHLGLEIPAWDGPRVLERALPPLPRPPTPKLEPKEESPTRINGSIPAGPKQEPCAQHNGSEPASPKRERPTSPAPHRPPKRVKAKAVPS
Source text: The deacetylation rate of different truncated SirT6 was normalized to the rate of full length SirT6 for the comparison.
The truncated SIRT6 was cloned similarly with the full length SIRT6. The primers used in the cloning of different truncated SIRT6 are the following: SIRT6Δ2-7 Forward 5′ GCTAGC ATGGGGCTGTCGCCGTACGCG 3′ (SEQ ID NO: 4); SIRT6Δ2-12 Forward 5′ GCTAGC ATG […] 3′ (SEQ ID NO: 5); SIRT6Δ2-18 Forward 5′ GCTAGC ATGGGCCTCCCGGAGATCTTCGAC 3′ (SEQ ID NO: 6); SIRT6Δ2-51 Forward 5′ 5′ GCTAGC ATGACGGGTGCCGGCATCAGCACT 3′ (SEQ ID NO: 7). The common reverse primer is 5′[…] 3′ (SEQ ID NO: 8). The truncated SIRT6 was amplified by PCR reaction. The PCR product was then ligated into pSTblue-1 (Novagen). After digestion with NheI and BamHI, the fragment containing SIRT6 gene was ligated into pET28a vector (Novagen). The SIRT6 truncated sequence in pET28a plasmid was confirmed by DNA sequencing, and the plasmid was then transformed into BL21Codon-plus RIPL cells (Stratagene). The protein expression and purification were the same as the full length SIRT6 as described above.

Substance: ssDNA: ssDNA 5′ GGGGATCCATGAAGATGAGCTTTGCGTTGACT 3′ (SEQ ID NO: 9), Integrated DNA Technologies (DNA, backbone and methylation of C not given here)
- Kd of DNA for activation of SirT6 [1]: 127.7 µg/mL
- Activation of truncated SirT6 deacetylation [2]: lost of activation
